Source: paper PMC4986100, “Design, Synthesis and Biological Evaluation of4-(Imidazolylmethyl)-2-(4-methylsulfonyl phenyl)-Quinoline Derivatives as Selective COX-2 Inhibitors and In-vitro Anti-breast Cancer Agents” (Iranian Journal of Pharmaceutical Research : IJPR, 2016)
pIC50: −log10 of the molar value. Values belong to the molecule of their own block, whether it stands above or below them.

Assays:
T47D cells = assay: MTT cytotoxicity assay; assay type: cell-based, human; conditions: for Survival (%) of T47D cells: MTT; for pIC50: MTT assay, calculated after two days exposure
Experimental: (§1) The human breast cancer T47D and MCF-7 cell lines were obtained from Pasteur Institute Cell Bank of IRAN (Tehran, IRAN). Cells were maintained in RPMI-1640(Gibco, UK) culture medium supplemented with 10% fetal bovine serum (Gibco, UK) and 100 U Ml^-1 of penicillin and […] of streptomycin (Gibco, UK) at 37 C in 5% CO2 incubator. All reagent and chemicals used in this experiment were of cell culture or molecular biology grade, purchased from different international sources.
(§2) The MTT (3-[4, 5-dimethylthiazol-2-yl]-2,5-diphenyl tetrazolium bromide) based assay was performed by seeding 5000 cells (T47D and MCF-7) per 180 µL RPMI complete culture medium in each well of 96-well culture plates. The day after seeding, culture medium was changed with medium containing standard anti-tumor drug Doxorubicin as well as different concentrations of newly synthesized compounds and RPMI control (no drug). Cells were then incubated at 37 °C in 5% Co2 incubator for 48h and 72h. Then 25 µL of MTT solution (4mg Ml^-1) were added to each well and further incubated at 37 °C for 3h. At the end of incubation, formazan crystals were dissolved in 100 µL of DMSO and plates were read in a plate reader (TECAN, Austria) at 540 nm. This experiment was performed in triplicate determination each time ([18],[19]).

MCF-7 cells = assay: MTT cytotoxicity assay; assay type: cell-based, human; conditions: for Survival (%) of MCF-7 cells: MTT; for pIC50: Homo sapiens, MCF7, 48 h, MTT assay, calculated after two days exposure
Experimental: as §1, §2

COX-1 = target: T1, COX-1 (Ovis aries, UniProt P05979); assay: biochemical; conditions: ovine COX-1/COX-2 assay kit; means of two determinations
T1 construct: purchased Cayman Chemical
T1 sequence (P05979 25-600): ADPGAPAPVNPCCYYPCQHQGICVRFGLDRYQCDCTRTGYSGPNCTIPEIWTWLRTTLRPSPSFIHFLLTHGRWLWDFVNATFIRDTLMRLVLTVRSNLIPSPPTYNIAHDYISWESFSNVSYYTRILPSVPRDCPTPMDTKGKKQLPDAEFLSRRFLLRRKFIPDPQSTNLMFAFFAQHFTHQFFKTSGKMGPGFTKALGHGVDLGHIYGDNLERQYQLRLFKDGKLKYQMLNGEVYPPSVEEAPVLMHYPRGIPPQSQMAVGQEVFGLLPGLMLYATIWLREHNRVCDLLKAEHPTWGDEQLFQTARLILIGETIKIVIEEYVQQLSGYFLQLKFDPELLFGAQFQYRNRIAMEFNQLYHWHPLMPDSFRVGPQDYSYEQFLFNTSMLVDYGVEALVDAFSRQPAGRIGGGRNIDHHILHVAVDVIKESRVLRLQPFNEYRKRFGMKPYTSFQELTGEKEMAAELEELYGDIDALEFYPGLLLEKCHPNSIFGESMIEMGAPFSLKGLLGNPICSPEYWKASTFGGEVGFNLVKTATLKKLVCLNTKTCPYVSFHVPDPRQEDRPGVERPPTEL
Experimental: (§3) In-vitro cyclooxygenase (COX) inhibition assays
(§4) The assay was performed using an enzyme chemiluminescentkit (Cayman Chemical, MI, USA) according to our previously reportedmethod([17])The Cayman chemical chemiluminescent COX
(§5) (ovine) inhibitor screening assay utilizes the heme-catalyzedhydroperoxidase activity of ovine cyclooxygenases to generateluminescence in the presence of a cyclic naphthalene hydrazideand the substrate arachidonic acid. Arachidonate-induced luminescencewas shown to be an index of real-time catalytic activity anddemonstrated the turnover inactivation of the enzyme. Inhibition

COX-2 = target: T2, COX-2 (Ovis aries, UniProt P79208); assay: biochemical; conditions: for Selectivity Index (COX-1 IC50/COX-2 IC50): in-vitro COX-2 selectivity index; for pIC50: ovine COX-1/COX-2 assay kit, means of two determinations
T2 construct: purchased Cayman Chemical
T2 sequence (P79208 17-603): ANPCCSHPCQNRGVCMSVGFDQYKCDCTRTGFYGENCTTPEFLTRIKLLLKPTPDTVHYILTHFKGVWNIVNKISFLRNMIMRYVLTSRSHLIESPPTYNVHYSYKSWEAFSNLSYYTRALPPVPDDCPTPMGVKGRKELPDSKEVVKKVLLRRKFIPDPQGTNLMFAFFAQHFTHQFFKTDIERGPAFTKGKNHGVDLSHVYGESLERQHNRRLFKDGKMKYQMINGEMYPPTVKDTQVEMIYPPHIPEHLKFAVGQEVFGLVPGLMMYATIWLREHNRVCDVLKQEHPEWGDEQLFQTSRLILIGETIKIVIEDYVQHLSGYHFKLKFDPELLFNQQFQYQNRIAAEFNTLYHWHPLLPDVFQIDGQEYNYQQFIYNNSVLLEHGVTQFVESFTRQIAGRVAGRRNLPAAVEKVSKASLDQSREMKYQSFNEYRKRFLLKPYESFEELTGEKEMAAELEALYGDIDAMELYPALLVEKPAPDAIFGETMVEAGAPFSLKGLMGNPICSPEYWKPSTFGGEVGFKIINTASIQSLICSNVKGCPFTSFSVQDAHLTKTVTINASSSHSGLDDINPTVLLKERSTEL
Experimental: as §3, §4, §5

SMILES: CS(=O)(=O)c1ccc(-c2cc(Cn3ccnc3)c3cccc(-c4ccccc4)c3n2)cc1 [Compound 9a, 4-((1H-Imidazol-1-yl)methyl)-2-(4-methylsulfonylphenyl)-8-phenyl-quinoline]
melting point: 196 to 198 °C | Survival (%) of T47D cells (T47D cells; 25 µM compound, 48 h exposure): 33.8% | Survival (%) of T47D cells (T47D cells; 25 µM compound, 72 h exposure): 25.4% | pIC50 (T47D cells; Homo sapiens, T47D, 48 h): ≥ 4.60 | pIC50 (T47D cells): > 4.60 | Survival (%) of MCF-7 cells (MCF-7 cells; 10 µM compound, 48 h exposure): 38.3% | Survival (%) of MCF-7 cells (MCF-7 cells; 10 µM compound, 72 h exposure): 26.7% | pIC50 (MCF-7 cells): > 5.00 | pIC50 (COX-1): 4.52 | Selectivity Index (COX-1 IC50/COX-2 IC50) (COX-2): 423.9 | pIC50 (COX-2): 7.15

SMILES: CS(=O)(=O)c1ccc(-c2cc(Cn3ccnc3)c3ccc4ccccc4c3n2)cc1 [Compound 9c, 4-((1H-Imidazol-1-yl)methyl)-2-(4-methylsulfonylphenyl)-benzo[h]-quinoline]
melting point: 216 to 217 °C | Survival (%) of T47D cells (T47D cells; 25 µM compound, 48 h exposure): 75.8% | Survival (%) of T47D cells (T47D cells; 25 µM compound, 72 h exposure): 68.9% | pIC50 (T47D cells; Homo sapiens, T47D, 48 h): 4.30 | Survival (%) of MCF-7 cells (MCF-7 cells; 10 µM compound, 48 h exposure): 48.4% | Survival (%) of MCF-7 cells (MCF-7 cells; 10 µM compound, 72 h exposure): 41.3% | pIC50 (MCF-7 cells): 5.00 | pIC50 (COX-1): 4.44 | Selectivity Index (COX-1 IC50/COX-2 IC50) (COX-2): 527.9 | pIC50 (COX-2): 7.17

SMILES: CS(=O)(=O)c1ccc(-c2cc(Cn3ccnc3)c3ccc4c(c3n2)CCCC4)cc1 [Compound 9d, 4-((1H-Imidazol-1-yl)methyl)-7,8,9,10-tetrahydro-2-(4-methylsulfonylphenyl)-benzo[h]-quinoline]
melting point: 247 to 248 °C | Survival (%) of T47D cells (T47D cells; 25 µM compound, 48 h exposure): 49.1% | Survival (%) of T47D cells (T47D cells; 25 µM compound, 72 h exposure): 26.1% | pIC50 (T47D cells; Homo sapiens, T47D, 48 h): 4.60 | Survival (%) of MCF-7 cells (MCF-7 cells; 10 µM compound, 48 h exposure): 4% | Survival (%) of MCF-7 cells (MCF-7 cells; 10 µM compound, 72 h exposure): 0.7% | pIC50 (MCF-7 cells): > 5.30 | pIC50 (COX-1): 4.46 | Selectivity Index (COX-1 IC50/COX-2 IC50) (COX-2): 547.6 | pIC50 (COX-2): 7.20

SMILES: COc1cccc2c1C(=O)c1c(O)c3c(c(O)c1C2=O)C[C@@](O)(C(=O)CO)C[C@@H]3O[C@H]1C[C@H](N)[C@H](O)[C@H](C)O1 [Doxorubicin, reference compound]
pIC50 (T47D cells; Homo sapiens, T47D, 48 h): 7.00 | Survival (%) of T47D cells (T47D cells; doxorubicin at 100 nM, 48 h): 53.2% | Survival (%) of T47D cells (T47D cells; doxorubicin at 100 nM, 72 h): 27.1% | pIC50 (MCF-7 cells): 6.60 | Survival (%) of MCF-7 cells (MCF-7 cells; doxorubicin at 250 nM (column head says 10 µM), 48 h): 50.2% | Survival (%) of MCF-7 cells (MCF-7 cells; doxorubicin at 250 nM (column head says 10 µM), 72 h): 31.7%

Continued, in another order:

melting point: 189 to 190 °C | pIC50 (COX-1): 4.89 | Selectivity Index (COX-1 IC50/COX-2 IC50) (COX-2): 179.9 | pIC50 (COX-2): 7.14
SMILES: CS(=O)(=O)c1ccc(-c2cc(Cn3ccnc3)c3ccccc3n2)cc1 [Compound 9e, 4-((1H-Imidazol-1-yl)methyl)-2-(4-methylsulfonylphenyl)-quinoline]
Survival (%) of T47D cells (T47D cells; 25 µM compound, 48 h exposure): 47.4% | Survival (%) of T47D cells (T47D cells; 25 µM compound, 72 h exposure): 47.5% | pIC50 (T47D cells; Homo sapiens, T47D, 48 h): 4.30 | pIC50 (T47D cells): 4.60 | Survival (%) of MCF-7 cells (MCF-7 cells; 10 µM compound, 48 h exposure): 67.2% | Survival (%) of MCF-7 cells (MCF-7 cells; 10 µM compound, 72 h exposure): 58.2%

melting point: 218 to 219 °C | pIC50 (COX-1): 4.59 | Selectivity Index (COX-1 IC50/COX-2 IC50) (COX-2): 288.9 | pIC50 (COX-2): 7.05
SMILES: Cc1ccc2c(Cn3ccnc3)cc(-c3ccc(S(C)(=O)=O)cc3)nc2c1C [Compound 9b, 4-((1H-Imidazol-1-yl)methyl)-2-(4-methylsulfonylphenyl)-7,8-dimethyl-quinoline]
Survival (%) of T47D cells (T47D cells; 25 µM compound, 48 h exposure): 66.2% | Survival (%) of T47D cells (T47D cells; 25 µM compound, 72 h exposure): 69.5% | pIC50 (T47D cells; Homo sapiens, T47D, 48 h): 4.30 | Survival (%) of MCF-7 cells (MCF-7 cells; 10 µM compound, 48 h exposure): 61% | Survival (%) of MCF-7 cells (MCF-7 cells; 10 µM compound, 72 h exposure): 47.2%
